Laboratory results: the Kinase Knowledgebase extract (Sharma et al. 2016)

Molecular target: CDK2 (UniProt P24941)
Assay: Enzyme Assay
Details: concentration not given here

| Compound | inhibition [%] |
| --- | --- |
| CCOc1ccccc1-c1n[nH]c2ccc(NS(=O)(=O)c3ccccc3S(C)(=O)=O)cc12 | 31 |
| C[Si](C)(C)C#Cc1cccc(-c2n[nH]c3ccc(NS(=O)(=O)c4ccccc4S(C)(=O)=O)cc23)c1 | 7 |
| COc1ccc(-c2n[nH]c3ccc(NS(=O)(=O)c4ccccc4S(C)(=O)=O)cc23)c(OC)c1 | 27 |
| CNc1n[nH]c2ccc(NS(=O)(=O)c3ccccc3S(C)(=O)=O)cc12 | 51 |
| CS(=O)(=O)c1ccccc1S(=O)(=O)Nc1ccc2[nH]nc(/C=C/c3ccc(F)cc3)c2c1 | 95 |
| O=S(=O)(Nc1ccc2[nH]nc(-c3ccccc3)c2c1)C1CCNCC1 | 13 |
| CS(=O)(=O)c1ccccc1S(=O)(=O)Nc1ccc2[nH]nc(-c3cccc(OC(F)(F)F)c3)c2c1 | 60 |
| O=S(=O)(Nc1ccc2[nH]nc(-c3cc4ccccc4[nH]3)c2c1)c1ccccc1OC(F)(F)F | 94 |
| CS(=O)(=O)c1ccccc1S(=O)(=O)Nc1ccc2[nH]nc(-c3ccccc3F)c2c1 | 61 |
| O=S(=O)(Nc1ccc2[nH]nc(-c3ccccc3)c2c1)c1ccc(F)c(F)c1 | 67 |
| COC(=O)c1cccc(-c2n[nH]c3ccc(NS(=O)(=O)c4ccccc4S(C)(=O)=O)cc23)c1 | 64 |
| CCCCS(=O)(=O)Nc1ccc2[nH]nc(-c3ccccc3)c2c1 | 30 |
| CS(=O)(=O)c1ccccc1S(=O)(=O)Nc1ccc2[nH]nc(-c3ccc(F)c(Cl)c3)c2c1 | 77 |
| Nc1n[nH]c2ccc(NS(=O)(=O)c3cccc(F)c3)cc12 | 34 |
| CS(=O)(=O)c1ccccc1S(=O)(=O)Nc1ccc2[nH]nc(-c3cc(F)cc(F)c3)c2c1 | 74 |
| CS(=O)(=O)c1ccccc1S(=O)(=O)Nc1ccc2[nH]nc(-c3ccc(Cl)s3)c2c1 | 55 |
| CS(=O)(=O)c1ccccc1S(=O)(=O)Nc1ccc2[nH]nc(-c3cccc(F)c3)c2c1 | 69 |
| CS(=O)(=O)c1ccccc1S(=O)(=O)Nc1ccc2[nH]nc(-c3ccc(Br)cc3F)c2c1 | 65 |
| CS(=O)(=O)c1ccccc1S(=O)(=O)Nc1ccc2[nH]nc(-c3ccoc3)c2c1 | 80 |
| Cc1cc(C)c(S(=O)(=O)Nc2ccc3[nH]nc(-c4ccccc4)c3c2)c(C)c1 | 79 |
| CSc1ccc(-c2n[nH]c3ccc(NS(=O)(=O)c4ccccc4S(C)(=O)=O)cc23)cc1 | 84 |
| CC(C)(C)c1ccc(-c2n[nH]c3ccc(NS(=O)(=O)c4ccccc4S(C)(=O)=O)cc23)cc1 | 0 |
| CS(=O)(=O)c1ccccc1S(=O)(=O)Nc1ccc2[nH]nc(NCc3ccccc3)c2c1 | 92 |
| CC(C)c1ccc(-c2n[nH]c3ccc(NS(=O)(=O)c4ccccc4S(C)(=O)=O)cc23)cc1 | 24 |
| CS(=O)(=O)c1ccccc1S(=O)(=O)Nc1ccc2[nH]nc(-c3cccc(N)c3)c2c1 | 88 |
| Cc1ccc(-c2n[nH]c3ccc(NS(=O)(=O)c4ccccc4S(C)(=O)=O)cc23)cc1N | 78 |
| Nc1ccc(S(=O)(=O)Nc2ccc3[nH]nc(-c4ccccc4)c3c2)cc1 | 70 |
| CS(=O)(=O)c1ccccc1S(=O)(=O)Nc1ccc2[nH]nc(-c3ccc(C(F)(F)F)cc3)c2c1 | 83 |
| CS(=O)(=O)c1ccccc1S(=O)(=O)Nc1ccc2[nH]nc(-c3cc4cccnc4[nH]3)c2c1 | 0 |

Continued, values first:

| inhibition [%] | Compound |
| --- | --- |
| 73 | CC(=O)Nc1ccc(S(=O)(=O)Nc2ccc3[nH]nc(-c4ccccc4)c3c2)cc1 |
| 58 | Nc1cc(Cl)cc(Cl)c1S(=O)(=O)Nc1ccc2[nH]nc(-c3ccccc3)c2c1 |
| 73 | CS(=O)(=O)c1ccccc1S(=O)(=O)Nc1ccc2[nH]nc(-c3cccc(Br)c3)c2c1 |
| 76 | CS(=O)(=O)c1ccccc1S(=O)(=O)Nc1ccc2[nH]nc(-c3ccc4c(c3)OCO4)c2c1 |
| 82 | CC(=O)Nc1n[nH]c2ccc(NS(=O)(=O)c3cc(F)cc(F)c3)cc12 |
| 21 | COc1ccc(-c2n[nH]c3ccc(NS(=O)(=O)c4ccccc4S(C)(=O)=O)cc23)c(OC)c1OC |
| 73 | CS(=O)(=O)c1ccccc1S(=O)(=O)Nc1ccc2[nH]nc(-c3ccc4[nH]ccc4c3)c2c1 |
| 12 | Nc1n[nH]c2ccc(NS(=O)(=O)c3c(F)cccc3F)cc12 |
| 50 | CS(=O)(=O)c1ccc(S(=O)(=O)Nc2ccc3[nH]nc(-c4ccccc4)c3c2)cc1 |
| 16 | CS(=O)(=O)c1ccccc1S(=O)(=O)Nc1ccc2[nH]nc(-c3ccc(OCc4ccccc4)cc3)c2c1 |
| 96 | CCCNC(=O)c1n[nH]c2ccc(NS(=O)(=O)c3ccccc3S(C)(=O)=O)cc12 |
| 51 | COc1ccc(OC)c(S(=O)(=O)Nc2ccc3[nH]nc(-c4ccccc4)c3c2)c1 |
| 20 | CN(C)c1cccc2c(S(=O)(=O)Nc3cccc(-c4n[nH]c5ccc(NS(=O)(=O)c6ccccc6S(C)(=O)=O)cc45)c3)cccc12 |
| 40 | O=C(O)c1cccc(S(=O)(=O)Nc2ccc3[nH]nc(-c4ccccc4)c3c2)c1 |
| 60 | CCOc1cccc(-c2n[nH]c3ccc(NS(=O)(=O)c4ccccc4S(C)(=O)=O)cc23)c1 |
| 82 | O=C(Nc1n[nH]c2ccc(NS(=O)(=O)c3cc(F)cc(F)c3)cc12)c1ccccc1 |
| 62 | Cc1cc2[nH]nc(-c3ccccc3)c2cc1NS(=O)(=O)c1ccccc1S(C)(=O)=O |
| 25 | Cc1ccccc1-c1n[nH]c2ccc(NS(=O)(=O)c3ccccc3S(C)(=O)=O)cc12 |

| inhibition [%] | Compound |
| --- | --- |
| 81 | CN(C)c1ccc(-c2n[nH]c3ccc(NS(=O)(=O)c4ccccc4S(C)(=O)=O)cc23)cc1 |
| 18 | Nc1n[nH]c2ccc(NS(=O)(=O)c3c(Cl)cccc3Cl)cc12 |
| 66 | Cc1ccc(-c2n[nH]c3ccc(NS(=O)(=O)c4ccccc4S(C)(=O)=O)cc23)cc1 |
| 50 | O=[N+]([O-])c1ccc(S(=O)(=O)Nc2ccc3[nH]nc(-c4ccccc4)c3c2)cc1 |
| 20 | CS(=O)(=O)c1ccccc1S(=O)(=O)Nc1ccc2[nH]nc(-c3ccc(Oc4ccccc4)cc3)c2c1 |
| 28 | CS(=O)(=O)c1ccccc1S(=O)(=O)Nc1ccc2[nH]nc(-c3cc(C(F)(F)F)cc(C(F)(F)F)c3)c2c1 |
| 96 | CS(=O)(=O)c1ccccc1S(=O)(=O)Nc1ccc2[nH]nc(/C=C/c3ccccc3)c2c1 |
| 87 | CS(=O)(=O)c1ccccc1S(=O)(=O)Nc1ccc2[nH]nc(-c3ccncc3)c2c1 |
| 82 | CS(=O)(=O)c1ccccc1S(=O)(=O)Nc1ccc2[nH]nc(-c3cccc([N+](=O)[O-])c3)c2c1 |
| 85 | CS(=O)(=O)c1ccccc1S(=O)(=O)Nc1ccc2[nH]nc(-c3ccc(N)cc3)c2c1 |
| 71 | Cc1cccc(-c2n[nH]c3ccc(NS(=O)(=O)c4ccccc4S(C)(=O)=O)cc23)c1 |
| 69 | N#Cc1ccccc1S(=O)(=O)Nc1ccc2[nH]nc(-c3ccccc3)c2c1 |
| 19 | CSc1ccccc1-c1n[nH]c2ccc(NS(=O)(=O)c3ccccc3S(C)(=O)=O)cc12 |
| 50 | CS(=O)(=O)c1ccccc1S(=O)(=O)Nc1ccc2[nH]nc(-c3ccccc3N)c2c1 |
| 50 | COc1ccccc1-c1n[nH]c2ccc(NS(=O)(=O)c3ccccc3S(C)(=O)=O)cc12 |
| 93 | COc1ccc(-c2n[nH]c3ccc(NS(=O)(=O)c4ccccc4S(C)(=O)=O)cc23)cc1 |
| 0 | CS(=O)(=O)c1ccccc1S(=O)(=O)Nc1ccc2[nH]nc(-c3cccc(Cl)c3Cl)c2c1 |
